# Values quoted from earlier work in US11752152B1, “Pharmaceutical formulations of imatinib and uses thereof” (Exvastat Ltd, priority 2022, dated 2023).
# System: animal models of sepsis, acute lung injury and impaired microcirculatory perfusion
# Settings: variety of animal models
structure (smiles),measurement,value
"Cc1ccc(NC(=O)c2ccc(CN3CCN(C)CC3)cc2)cc1Nc1nccc(-c2cccnc2)n1 [Imatinib, 4-[(4-methylpiperazin-1-yl)methyl]-N-[4-methyl-3-[(4-pyridin-3-ylpyrimidin-2-yl)amino]phenyl]benzamide]","effect on endothelial barrier, vascular leak and inflammation","protect the endothelial barrier, prevent vascular leak and reduce inflammation"
